Data: patent US9387203B2, “Substituted aminoindane- and aminotetralinecarboxylic acids and the use thereof” (BAYER PHARMA AKTIENGESELLSCHAFT, priority 2012, dated 2016)
pEC50, pIC50: −log10 of the molar value.

Legend:
[1] = target: T1, soluble guanylate cyclase (sGC) (Rattus norvegicus, UniProt P20595); assay: Stimulation of sGC enzyme activity (PPi detection, luciferase); assay type: biochemical; conditions: for pEC50: sGC enzyme in vitro, read-out: EC50 (half-maximal effective concentration), activating action at the sGC enzyme in vitro
T1 construct: made in house
T1 sequence (P20595 1-619): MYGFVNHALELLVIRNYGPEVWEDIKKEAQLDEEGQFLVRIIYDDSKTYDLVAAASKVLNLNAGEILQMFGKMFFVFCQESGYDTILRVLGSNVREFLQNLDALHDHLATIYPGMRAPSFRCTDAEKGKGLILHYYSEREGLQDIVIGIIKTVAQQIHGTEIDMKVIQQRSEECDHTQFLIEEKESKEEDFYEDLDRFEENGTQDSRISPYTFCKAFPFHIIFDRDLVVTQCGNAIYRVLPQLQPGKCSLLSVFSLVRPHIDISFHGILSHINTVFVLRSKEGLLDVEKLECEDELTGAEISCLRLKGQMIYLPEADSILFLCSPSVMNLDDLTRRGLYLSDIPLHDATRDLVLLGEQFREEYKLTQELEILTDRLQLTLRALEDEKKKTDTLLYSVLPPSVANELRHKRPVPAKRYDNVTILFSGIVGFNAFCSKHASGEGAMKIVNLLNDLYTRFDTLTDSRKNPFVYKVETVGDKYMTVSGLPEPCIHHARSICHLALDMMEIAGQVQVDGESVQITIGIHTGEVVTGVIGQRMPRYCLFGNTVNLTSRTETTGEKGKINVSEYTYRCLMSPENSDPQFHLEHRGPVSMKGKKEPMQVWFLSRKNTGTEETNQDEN
T1 sequence (P19686 1-690 partner): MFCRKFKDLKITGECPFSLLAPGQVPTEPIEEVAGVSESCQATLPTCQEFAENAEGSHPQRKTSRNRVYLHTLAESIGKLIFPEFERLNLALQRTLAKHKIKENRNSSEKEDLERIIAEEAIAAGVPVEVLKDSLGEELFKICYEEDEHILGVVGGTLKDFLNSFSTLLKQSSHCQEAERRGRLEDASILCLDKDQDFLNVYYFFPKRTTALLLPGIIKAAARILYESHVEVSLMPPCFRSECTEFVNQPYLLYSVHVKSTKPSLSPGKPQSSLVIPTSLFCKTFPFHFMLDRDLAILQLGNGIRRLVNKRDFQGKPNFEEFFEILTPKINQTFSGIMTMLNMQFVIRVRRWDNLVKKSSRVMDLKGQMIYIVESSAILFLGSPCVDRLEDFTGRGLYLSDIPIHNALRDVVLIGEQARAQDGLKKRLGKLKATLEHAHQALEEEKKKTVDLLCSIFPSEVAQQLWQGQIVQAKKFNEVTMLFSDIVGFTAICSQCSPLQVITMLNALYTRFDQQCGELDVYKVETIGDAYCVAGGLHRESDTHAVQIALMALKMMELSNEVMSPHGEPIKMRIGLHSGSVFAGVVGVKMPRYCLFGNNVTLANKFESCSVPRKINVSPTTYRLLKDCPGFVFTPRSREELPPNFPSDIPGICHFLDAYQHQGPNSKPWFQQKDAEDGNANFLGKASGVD
Description: B-2. Stimulation of sGC Enzyme Activity
Soluble guanylate cyclase (sGC) converts on stimulation GTP into cGMP and pyrophosphate (PPi). PPi is detected with the aid of the assay described below. The signal produced in the assay increases as the reaction progresses and serves as a measure of the sGC enzyme activity under the given stimulation.
To carry out the assay, 29 μl of enzyme solution[0-10 nM soluble guanylate cyclase (prepared according to Honicka et al., J. Mol. Med. 77, 14-23 (1999)) in 50 mM TEA, 2 mM MgCl2, 0.1% BSA (fraction V), 0.005% Brij®, pH 7.5] are initially introduced into a microplate, and 1 μl of the substance to be tested (as a serially diluted solution in DMSO) is added. The mixture is incubated at room temperature for 10 min. Then 20 μl of detection mix [1.2 nM Firefly Luciferase (Photinus pyralis luciferase, Promega), 29 μM dehydroluciferin (prepared according to Bitler & McElroy, Arch. Biochem. Biophys. 72, 358 (1957)), 122 μM luciferin (Promega), 153 μM ATP (Sigma) and 0.4 mM DTT (Sigma) in 50 mM TEA, 2 mM MgCl2, 0.1% BSA (fraction V), 0.005% Brij®, pH 7.5] are added. The enzyme reaction is started by adding 20 μl of substrate solution[1.25 mM guanosine 5′-triphosphate (Sigma) in 50 mM TEA, 2 mM MgCl2, 0.1% BSA (fraction V), 0.005% Brij®, pH 7.5] and measured continuously in a luminometer. The extent of the stimulation by the substance to be tested can be determined relative to the signal of the unstimulated reaction.
The activation of haem-free guanylate cyclase is examined by addition of 25 μM of 1H-1,2,4-oxadiazolo[4,3-a]quinoxalin-1-one (ODQ) to the enzyme solution and subsequent incubation for 30 minutes and compared to the stimulation of the native enzyme.

[2] = system: rabbit arteria saphena rings; assay: Vasorelaxant effect in vitro (arteria saphena rings, phenylephrin contraction); design: species or system Rabbits; conditions: concentration reducing phenylephrin-induced contraction by 50%
Description: B-3. Vasorelaxant Effect In Vitro
Rabbits are anaesthetized by intravenous injection of thiopental sodium […] (about 50 mg/kg) and exsanguinated. The arteria saphena is removed and divided into 3 mm wide rings. The rings are individually mounted on in each case one triangular pair of hooks, open at the end, made of 0.3 mm strong special wire (Remanium®). Under pretension, each ring is transferred into 5 ml organ baths containing carbogen-gassed Krebs-Henseleit solution of a temperature of 37° C. having the following composition: NaCl 119 mM; KCl 4.8 mM; CaCl2×2 H2O 1 mM; MgSO4×7 H2O 1.4 mM; KH2PO4 1.2 mM; NaHCO3 25 mM; glucose 10 mM; bovine serum albumin 0.001%. The contractile force is determined with Statham UC2 cells, amplified and digitalized using A/D transducers (DAS-1802 HC, Keithley Instruments Munich), and recorded in parallel on linear recorders. Contractions are induced by addition of phenylephrin.
After several (in general 4) control cycles, the substance to be investigated is added in each further passage in increasing dosage, and the height of the contraction achieved under the influence of the test substance is compared with the height of the contraction achieved in the last preliminary passage. From this, the concentration which is necessary in order to reduce the contraction achieved in the preliminary control by 50% (IC50) is calculated. The standard administration volume is 5 μl. The proportion of DMSO in the bath solution corresponds to 0.1%.

[3] = system: recombinant guanylate cyclase reporter cell line (CHO); assay: Effect on a recombinant guanylate cyclase reporter cell line (sGC-activating activity in the CHO reporter cell); assay type: cell-based
Description: B-1. Effect on a Recombinant Guanylate Cyclase Reporter Cell Line
The cellular activity of the compounds according to the invention is determined using a recombinant guanylate cyclase reporter cell line, as described in F. Wunder et al., Anal. Biochem. 339, 104-112 (2005).

Row | MEC (minimum effective concentration), activating action at the sGC enzyme in vitro [1] [nM] | pIC50 [2] | pEC50 [1] | pIC50 ([2]; Oryctolagus cuniculus) | Compound | MEC (minimum effective concentration), sGC-activating activity in the CHO reporter cell in vitro [3] [nM]
1 | 600 | – | – | – | O=C(O)CCCCN(CCc1ccccc1OCCCCN1CCCC1=O)C1CCCc2cc(C(=O)O)ccc21 (stereo not drawn) [Example 16] | –
2 | 5 | 7.24 | 7.37 | – | CC(C)(C)c1ccc(COc2ccccc2CCN(CCCCC(=O)O)C2CCCc3cc(C(=O)O)ccc32)cc1 (single isomer, unassigned; enantiomer 2) [Example 3, 5-[(2-{2-[(4-tert-Butylbenzyl)oxy]phenyl}ethyl)(4-carboxybutyl)amino]-5,6,7,8-tetrahydronaphthalene-2-carboxylic acid (enantiomer 2)] | 0.65
3 | 0.32 | – | 8.14 | – | O=C(O)CCCCN(CCc1ccccc1OCc1ccc(CCc2ccccc2)cc1)C1CCCc2cc(C(=O)O)ccc21 (stereo not drawn) [Example 8] | 0.3
4 | 55 | – | – | – | CC1CCC(=O)N1CCCCOc1ccccc1CCN(CCCCC(=O)O)C1CCCc2cc(C(=O)O)ccc21 (stereo not drawn) [Example 13] | –
5 | 270 | – | – | – | N#Cc1cccc(COc2ccccc2CCN(CCCCC(=O)O)C2CCCc3cc(C(=O)O)ccc32)c1 (stereo not drawn) [Example 10] | 1000
6 | 0.21 | – | 8.35 | 7.51 | CC(C)(C)c1ccc(COc2ccccc2CCN(CCCCC(=O)O)C2CCc3cc(C(=O)O)ccc32)cc1 (stereo not drawn) [Example 4] | 3.0
7 | 0.11 | 8.42 | 8.60 | – | CC(C)(C)c1ccc(COc2ccccc2CCN(CCCCC(=O)O)C2CCCc3cc(C(=O)O)ccc32)cc1 (single isomer, unassigned; enantiomer 1) [Example 2, 5-[(2-{2-[(4-tert-Butylbenzyl)oxy]phenyl}ethyl)(4-carboxybutyl)amino]-5,6,7,8-tetrahydronaphthalene-2-carboxylic acid (enantiomer 1)] | 0.2
8 | 610 | – | – | – | Cc1cc(COc2ccccc2CCN(CCCCC(=O)O)C2CCCc3cc(C(=O)O)ccc32)n(C)n1 (stereo not drawn) [Example 11] | –
9 | 0.34 | – | 8.52 | 8.22 | CC(C)(C)c1ccc(COc2ccccc2CCN(CCCCC(=O)O)C2CCCc3cc(C(=O)O)ccc32)cc1 (racemic) [Example 1, rac-5-[(2-{2[(4-tert-Butylbenzyl)oxy]phenyl}ethyl)(4-carboxybutyl)amino]-5,6,7,8-tetrahydronaphthalene-2-carboxylic acid] | 0.3
